Source: patent US20130296390A1, “METHOD AND COMPOSITIONS FOR ENHANCING THE SAFETY OF ORALLY ADMINISTERED MAGNESIUM ALPHA-LIPOATE” (BIOLINK LIFE SCIENCES, INC., priority 2012, published 2013)
“Also recorded” adds a separate entry of the source. One block for each molecule: values may come before it.

Experiments:
[1] = target: T1, sodium-dependent vitamin transporters (SMVT) (Homo sapiens, UniProt Q9Y289); conditions: keratinocytes, cited from earlier work; for Ki: read-out: Ki, inhibition of biotin uptake
T1 construct: in keratinocytes, the SMVT transport system; endogenous in cells; host or cells: human keratinocytes
T1 sequence (Q9Y289 1-635): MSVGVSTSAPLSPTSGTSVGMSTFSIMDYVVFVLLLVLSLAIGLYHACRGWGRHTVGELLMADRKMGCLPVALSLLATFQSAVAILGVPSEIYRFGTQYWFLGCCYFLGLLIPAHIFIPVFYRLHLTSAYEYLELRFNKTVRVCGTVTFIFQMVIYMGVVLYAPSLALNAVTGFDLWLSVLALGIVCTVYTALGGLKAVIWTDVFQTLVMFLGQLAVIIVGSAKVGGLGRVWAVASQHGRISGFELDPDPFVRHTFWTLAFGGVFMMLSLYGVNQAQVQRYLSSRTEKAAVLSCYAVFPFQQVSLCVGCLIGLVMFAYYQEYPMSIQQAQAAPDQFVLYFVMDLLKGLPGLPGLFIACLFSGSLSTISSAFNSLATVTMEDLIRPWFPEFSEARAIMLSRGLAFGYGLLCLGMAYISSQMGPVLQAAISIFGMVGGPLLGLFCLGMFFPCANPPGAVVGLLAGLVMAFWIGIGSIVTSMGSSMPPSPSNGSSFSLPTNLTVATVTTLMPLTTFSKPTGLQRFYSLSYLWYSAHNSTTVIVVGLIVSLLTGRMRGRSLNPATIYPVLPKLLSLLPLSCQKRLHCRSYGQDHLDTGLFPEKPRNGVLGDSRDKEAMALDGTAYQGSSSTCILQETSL

[2] = intravenous, acute 100 mg/kg dose, rat; cited from earlier work
[3] = system: acetyl-CoA carboxylase (EC 6.4.1.2); conditions: intraperitoneal ALA 8.8 mg/kg·day or 31.8 mg/kg·d, rats; wide intragroup variability; cited from earlier work
[4] = Short and long-term toxicity studies of ALA (NOAEL); assay type: in vivo
Experimental: Alpha-Lipoic acid is the sole remaining component in the formulation tested in Example 1. The safety and absence of toxicity of ALA has been established in both short and long-term toxicity studies, including in vitro mutagenicity/genotoxicity studies. The no-observed adverse effect level (NOAEL) of ALA is considered to be 60 mg per kg body weight per day. […] Nonetheless, the inventor examined to a number of potential mechanisms of toxicity related to alpha-lipoate.

[5] = in vivo; cited from earlier work
[6] = oral; cited from earlier work
[7] = oral, chronic daily doses about 30 mg/kg to over 2,000 mg/kg body weight; cited from earlier work
[8] = target: T2, pyruvate carboxylase (EC 6.4.1.1) (Rattus norvegicus, UniProt P52873); conditions: intraperitoneal ALA 8.8 mg/kg·day or 31.8 mg/kg·d, rats, compared with vehicle controls (P<0.05); cited from earlier work
T2 construct: Lipoic acid reduces the activities of biotin-dependent carboxylases in rat liver; from tissue; host or cells: rat liver
T2 sequence (P52873 21-1178): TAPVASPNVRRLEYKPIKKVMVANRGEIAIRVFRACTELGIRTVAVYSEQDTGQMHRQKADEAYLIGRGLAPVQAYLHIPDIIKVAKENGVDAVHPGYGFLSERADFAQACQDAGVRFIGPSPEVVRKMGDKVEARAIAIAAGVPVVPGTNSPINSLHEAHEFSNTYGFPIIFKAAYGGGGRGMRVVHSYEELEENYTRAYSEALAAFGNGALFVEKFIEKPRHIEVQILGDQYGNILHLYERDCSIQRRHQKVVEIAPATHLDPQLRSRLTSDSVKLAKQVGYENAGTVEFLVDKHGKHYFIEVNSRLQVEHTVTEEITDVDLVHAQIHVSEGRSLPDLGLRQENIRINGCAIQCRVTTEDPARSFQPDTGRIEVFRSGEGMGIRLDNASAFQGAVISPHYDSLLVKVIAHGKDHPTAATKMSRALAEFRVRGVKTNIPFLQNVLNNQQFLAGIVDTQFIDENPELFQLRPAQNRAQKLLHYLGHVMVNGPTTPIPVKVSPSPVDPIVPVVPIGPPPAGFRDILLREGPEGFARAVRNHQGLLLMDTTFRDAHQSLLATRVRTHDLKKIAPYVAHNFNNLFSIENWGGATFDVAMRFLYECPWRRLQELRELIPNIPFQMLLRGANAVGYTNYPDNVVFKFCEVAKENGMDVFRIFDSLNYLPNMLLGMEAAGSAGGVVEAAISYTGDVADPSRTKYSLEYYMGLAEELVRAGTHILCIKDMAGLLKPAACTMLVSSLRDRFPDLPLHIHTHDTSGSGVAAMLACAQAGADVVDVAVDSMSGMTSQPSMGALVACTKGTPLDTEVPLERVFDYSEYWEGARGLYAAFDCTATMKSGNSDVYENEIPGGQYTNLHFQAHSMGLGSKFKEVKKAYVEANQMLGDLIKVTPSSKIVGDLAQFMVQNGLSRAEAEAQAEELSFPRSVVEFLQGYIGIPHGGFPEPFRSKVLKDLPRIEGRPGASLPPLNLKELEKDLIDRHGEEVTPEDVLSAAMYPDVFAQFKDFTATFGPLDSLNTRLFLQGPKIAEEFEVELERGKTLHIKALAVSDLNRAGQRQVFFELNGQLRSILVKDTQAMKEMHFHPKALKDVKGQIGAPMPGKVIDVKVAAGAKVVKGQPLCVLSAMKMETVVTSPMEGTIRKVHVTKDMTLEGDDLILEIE

[9] = cited from earlier work
[10] = system: second biotin transport component; conditions: keratinocytes, cited from earlier work
[11] = target: T3, β-methylcrotonyl-CoA carboxylase (EC 6.4.1.4) (Rattus norvegicus, UniProt Q5I0C3+Q5XIT9); conditions: intraperitoneal ALA 8.8 mg/kg·day or 31.8 mg/kg·d, rats, compared with vehicle controls (P<0.05); cited from earlier work
T3 construct: Lipoic acid reduces the activities of biotin-dependent carboxylases in rat liver; from tissue; host or cells: rat liver
T3 sequence (Q5I0C3 39-715): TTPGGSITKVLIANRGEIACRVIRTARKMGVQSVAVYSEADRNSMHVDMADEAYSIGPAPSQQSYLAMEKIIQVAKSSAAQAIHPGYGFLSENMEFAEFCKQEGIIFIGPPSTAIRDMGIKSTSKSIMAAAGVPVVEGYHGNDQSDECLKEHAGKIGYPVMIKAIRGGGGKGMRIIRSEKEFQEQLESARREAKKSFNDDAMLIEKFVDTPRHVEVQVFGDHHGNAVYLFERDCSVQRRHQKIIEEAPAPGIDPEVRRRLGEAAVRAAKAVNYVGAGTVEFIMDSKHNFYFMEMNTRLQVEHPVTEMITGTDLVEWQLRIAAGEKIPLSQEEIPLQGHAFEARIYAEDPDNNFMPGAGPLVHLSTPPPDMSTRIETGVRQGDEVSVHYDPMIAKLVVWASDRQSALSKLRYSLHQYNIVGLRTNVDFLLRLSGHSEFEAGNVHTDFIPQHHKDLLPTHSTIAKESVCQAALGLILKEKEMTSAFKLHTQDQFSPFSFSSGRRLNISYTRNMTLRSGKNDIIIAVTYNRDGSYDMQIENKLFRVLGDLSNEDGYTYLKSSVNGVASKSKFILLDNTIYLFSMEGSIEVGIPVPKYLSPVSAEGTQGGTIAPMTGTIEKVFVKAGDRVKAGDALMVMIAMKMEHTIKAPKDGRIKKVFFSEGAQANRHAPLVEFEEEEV
T3 sequence (Q5XIT9 23-563): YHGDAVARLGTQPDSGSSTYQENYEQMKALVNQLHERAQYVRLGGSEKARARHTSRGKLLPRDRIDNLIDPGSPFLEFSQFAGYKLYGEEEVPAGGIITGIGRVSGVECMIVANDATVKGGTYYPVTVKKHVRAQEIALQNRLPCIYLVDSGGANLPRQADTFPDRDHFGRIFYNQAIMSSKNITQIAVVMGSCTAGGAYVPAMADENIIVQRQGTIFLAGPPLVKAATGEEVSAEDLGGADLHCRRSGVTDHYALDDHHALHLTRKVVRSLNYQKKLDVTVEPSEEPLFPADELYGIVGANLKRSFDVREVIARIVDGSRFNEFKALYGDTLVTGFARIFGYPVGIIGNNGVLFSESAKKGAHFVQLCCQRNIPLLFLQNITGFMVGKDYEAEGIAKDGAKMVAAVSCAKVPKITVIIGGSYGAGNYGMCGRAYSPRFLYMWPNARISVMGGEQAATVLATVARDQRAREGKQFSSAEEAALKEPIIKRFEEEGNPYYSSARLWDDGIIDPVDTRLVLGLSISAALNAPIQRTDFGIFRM

[12] = Physicochemical description
[13] = system: mouse model of chronic kidney disease (CKD); experiment: Example 1: phosphate binders in diet of LDLR−/− mouse model of CKD; assay type: in vivo; conditions: chronic daily dose of 0.5% or 1.5% (by weight) in the diet, oral
Excerpt: This study critically examined the in vivo efficacy of phosphate binding by a combination of phosphate binders, magnesium R-(+)-α-lipoate and calcium succinate monohydrate, in a mouse model of chronic kidney disease (CKD). The model is partial renal ablation in the LDL receptor-deficient (LDLR−/−) mouse that is fed high fat/cholesterol diets. […] In these animals, CKD causes intensification of vascular calcification (VC).
Materials: Calcium succinate monohydrate (CaSucc) and magnesium R-(+)-α-lipoate (MgRALA) having high purity and freedom from contaminating trace metals were provided by BioLink Life Sciences, Inc. Other chemicals were purchased from Sigma Aldrich Company (St. Louis, Mo.). […]
Two sets of animals in the group receiving magnesium alpha-lipoate were treated according to the protocol. […] Myocardin, Smad6, sm22α, calponin, αSMA, BMP-2, RUNX2/Cbfa1, osteopontin and osteocalcin message levels were measured by real time RT-PCR. Osteocalcin, type 1 collagen and αSMA were determined by immunohistochemistry. MGP levels and specifically γ-carboxylated MGP were determined with a specific antibody. […]
Blood Tests: Serum was analyzed on the day of blood draw for blood urea nitrogen [BUN], cholesterol, calcium, glucose and phosphate by standard autoanalyzer laboratory methods.

Compound: O=C(O)CCCC[C@@H](S)CCS (racemic) [dihydrolipoic acid]
Ki [1]: 11.4 µM

Compound: O=C(O)CCCCC1CCSS1 (stereo not drawn) [ALA, alpha-lipoic acid]
S-adenosylhomocysteine [2]: elevated | S-adenosylmethionine [2]: depleted | decrease of acetyl carboxylase activity [3]: ≤ 43% | NOAEL equivalent for an adult man ([4]; adult man): 4.2 grams of ALA per day | NOAEL equivalent for an adult woman ([4]; adult woman): 3 grams of ALA per day | no-observed adverse effect level (NOAEL) [5]: 60 mg per kg body weight per day | fraction of orally administered ALA absorbed into cells and the systemic circulation [6]: greater than 90% | time in which most of the orally administered ALA is absorbed [6]: two | overt adverse effects in animals [7]: without overt adverse effects | reduction of pyruvate carboxylase activity [8]: 28-36% | toxicities in human studies ([9]; normal subjects and those with chronic kidney disease): no significant toxicities have been observed | overt adverse effects in humans ([9]; oral, total doses 100 mg to 1800 mg daily for months or years): without overt adverse effects; also recorded: no overt adverse effects | inhibition of second biotin transport component [10]: not inhibited | Ki [1]: 4.6 µM | reduction of β-methylcrotonyl carboxylase activity [11]: 28-36%

Compound: O=C(O)CCCCC1CCSS1 (stereo not drawn) [Magnesium a-lipoate, magnesium alpha-lipoate]
stability and hygroscopicity of the powder [12]: stable, non-hygroscopic

Compound: O=C(O)CCCC[C@@H]1SC[C@@H]2NC(=O)N[C@@H]21 [biotin, D-biotin]
Ki ([10]; read-out: Ki, second biotin transport component, saturable at very low biotin concentrations): 2.6 ± 0.1 nM | Michaelis-Menten constant for biotin ([1]; SMVT transport system): 22.7 ± 1.0 µM | maximal velocity ([1]; SMVT transport system): 163.6±3.5 pmol per five minutes per milligram of protein

Compound: C[C@@H]1NC(=O)N[C@@H]1CCCCCC(=O)O [desthiobiotin]
Ki [1]: 15.2 µM

stability and hygroscopicity of the powder [12]: stable, non-hygroscopic
Compound: O=C(O)CCCC[C@@H]1CCSS1 [magnesium R-(+)-alpha-lipoate, Magnesium R-(+)-alpha-lipoate]
overt adverse effects (FIG. 1) [13]: hair loss and skin disorders

Compound: CC(C)(CO)[C@@H](O)C(=O)NCCC(=O)O [panthothenic acid]
inhibition of second biotin transport component [10]: not inhibited | Ki [1]: 1.2 µM
